The source of these data is patent publication EP2949653A1, “ISOXAZOLE DERIVATIVES AS LEUKOTRIENE BIOSYNTHESIS INHIBITORS” (Banoglu, Erden, priority 2014, dated 2015).

Assay [1] relates to 5-LO mediated product synthesis. In words: 5-LO mediated product synthesis in neutrophils under cell-stress (NaCl or diamide). Particulars: in the presence of cell-stress (0.3 M NaCl or 0.25 mM diamide), human neutrophils (Figure 4A-B). It is filed as cell-based. On the procedure: Inhibitory activity of compound 9hj on 5-LO mediated product synthesis in human neutrophils is shifted to the right by factor 10 in the presence of cell-stress (i.e., 0.3 M NaCl or 0.25 mM diamide), which is typical for non-redox type 5-LO inhibitors or FLAP inhibitors (Figure 4A-B). To intact neutrophils, 0.3 M sodium chloride (NaCl) or vehicle (DMSO) was added 3 min before addition of 9hj at 37°C. After addition of 9hj for another 10 min at 37°C, cells were stimulated with 20 µM AA for 10 min at 37°C. Data are expressed as percentage of vehicle control (0.1% DMSO). 100% controls correspond to 174.41 ng mL^-1 for 0.3 M NaCl and 50.73 ng mL^-1 for control (DMSO) (Figure 4A). To intact neutrophils, 0.25 mM diamide or vehicle (DMSO) was added 5 min before addition of 9hj at 37°C (Figure 4b). After addition of 9hj for another 15 min at 37°C, cells were stimulated with 2.5 µM A23187 plus 20 µM AA for 10 min at 37°C. Data are expressed as percentage of vehicle control (0.1% DMSO). 100% controls correspond to 1148.61 ng mL^-1 for 0.25 mM diamide and 802.06 ng mL^-1 for control (DMSO) (Figure 4B).

The subject of a further assay is translocation of 5-LO. The assay is described as follows: 5-LO subcellular localization by immunofluorescence microscopy. It is filed as cell-based. The note with it: 0.1 and 1 µM; Ca-ionophore A23187 (2.5 µM; 3 min) (Figure 8).
For a further assay, the target named is T1, 15-LO (Homo sapiens, UniProt P16050).
T1 construct: 12-LO or 15-LO, up to 10 µM in A23187-stimulated neutrophils; endogenous in cells; host or cells: A23187-stimulated neutrophils
T1 sequence (P16050 1-662): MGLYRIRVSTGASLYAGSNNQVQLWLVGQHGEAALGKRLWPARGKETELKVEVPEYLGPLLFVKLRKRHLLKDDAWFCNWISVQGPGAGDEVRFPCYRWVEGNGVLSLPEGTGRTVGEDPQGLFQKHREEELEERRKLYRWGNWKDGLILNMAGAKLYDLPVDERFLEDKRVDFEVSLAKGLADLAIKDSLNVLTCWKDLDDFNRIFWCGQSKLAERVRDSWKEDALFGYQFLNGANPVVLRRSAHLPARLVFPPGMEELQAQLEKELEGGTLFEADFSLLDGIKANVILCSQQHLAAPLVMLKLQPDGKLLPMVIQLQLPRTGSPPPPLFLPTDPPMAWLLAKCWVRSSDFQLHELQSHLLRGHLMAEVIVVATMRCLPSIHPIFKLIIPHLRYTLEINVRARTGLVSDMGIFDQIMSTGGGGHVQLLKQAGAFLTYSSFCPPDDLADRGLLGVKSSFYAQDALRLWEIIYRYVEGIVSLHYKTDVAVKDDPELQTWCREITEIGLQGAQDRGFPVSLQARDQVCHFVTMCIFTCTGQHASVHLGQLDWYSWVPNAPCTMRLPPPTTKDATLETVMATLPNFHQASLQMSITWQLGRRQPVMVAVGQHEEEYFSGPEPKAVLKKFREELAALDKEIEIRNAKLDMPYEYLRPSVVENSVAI
The assay is described as follows: 15-LO inhibition in A23187-stimulated neutrophils. It is filed as cell-based. Particulars: up to 10 µM in A23187-stimulated neutrophils.

The subject of assay [2] is 5-LO mediated product formation. In words: 5-LO mediated product formation in intact neutrophils stimulated with A23187 (cell-based). Particulars: Homo sapiens, Neutrophil; A23187, in the presence of 20 µM to 80 µM exogenous arachidonic acid (Figure 2); read-out: IC50 5-LO mediated product formation in human neutrophils with exogenous AA.
The target in a further assay is T2, 5-LO plus FLAP (Homo sapiens, UniProt P20292).
T2 construct: expressed in transfected cells; host or cells: HEK293 (stably transfected)
T2 sequence (P20292 1-161): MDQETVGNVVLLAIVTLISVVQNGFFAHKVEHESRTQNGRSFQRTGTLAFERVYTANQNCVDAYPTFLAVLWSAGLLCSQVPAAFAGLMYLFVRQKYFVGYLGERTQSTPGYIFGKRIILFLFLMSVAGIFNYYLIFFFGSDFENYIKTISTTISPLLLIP
In words: 5-LO mediated product synthesis in HEK293 cells transfected with 5-LO plus FLAP. The note with it: 2.5 µM A23187 plus 3 µM AA (Figure 7). It is filed as cell-based. The method, then:
Compound 9hj inhibited 5-LO mediated product synthesis in HEK293 cells transfected with only 5-LO, with IC50 of 900 nM. […] After preincubation of cells with 9hj for 15 min at 37°C, cells were stimulated with 2.5 µM A23187 plus 3 µM AA for 10 min at 37°C. Data are expressed as percentage of vehicle control (0.1% DMSO). 100% controls correspond to 157.48 ng mL^-1 for 5-LO transfected cells and 155.15 ng mL^-1 for 5-LO plus FLAP transfected cells.

Assay [3] has as its system 5-LO mediated product synthesis. The assay is described as follows: 5-LO mediated product synthesis in monocytes stimulated with LPS plus fMLP. It is filed as cell-based. Particulars: Homo sapiens, Monocyte.

For `O=C(O)c1noc(-c2ccc(OCc3ccc4ccccc4n3)cc2)c1-c1ccc(Cl)cc1` [Compound 9hj, 4-(4-Chlorophenyl)-5-(4-(quinolin-2-ylmethoxy)phenyl)isoxazole-3-carboxylic acid], the “Inhibitory activity shifted to the right by factor” value in assay [1] is given as 10. In addition, the “translocation of 5-LO from soluble subcellular compartment to nuclear membrane” value in the assay on translocation of 5-LO is “inhibited translocation”. At 15-LO, the “inhibition of 15-LO” value is “did not inhibit”. The IC50 in assay [2] is 170 to 350 nM; at 5-LO plus FLAP, 310 nM; in assay [3], 8 nM.

The term IC50 denotes the concentration needed to halve the response being measured.
